Measurements taken from ChEMBL document CHEMBL2407075, “Sulphonamido-quinoxalines: search for anticancer agent” (Eur J Med Chem, 2013).

Experiment: Oral bioavailability in human
Assay type: ADME, organism-based
Conditions: in silico prediction

Row | Structure (SMILES) | bioavailability
1 | O=[N+]([O-])c1cccc(NS(=O)(=O)c2ccc3nc(-c4ccccc4)c(-c4ccccc4)nc3c2)c1 | 85.6%
2 | O=S(=O)(Nc1ccc(O)cc1)c1ccc2nc(-c3ccccc3)c(-c3ccccc3)nc2c1 | 93.9%
3 | CC(=O)c1cccc(NS(=O)(=O)c2ccc3nc(-c4ccccc4)c(-c4ccccc4)nc3c2)c1 | 96.9%
4 | O=C(O)c1ccccc1NS(=O)(=O)c1ccc2nc(-c3ccccc3)c(-c3ccccc3)nc2c1 | 83.6%
5 | CC(=O)NS(=O)(=O)c1ccc2nc(-c3ccccc3)c(-c3ccccc3)nc2c1 | 94.7%

Second part, the molecule after the results:

Row | bioavailability | Structure (SMILES)
6 | 100% | O=S(=O)(Nc1ccc2ccccc2c1)c1ccc2nc(-c3ccccc3)c(-c3ccccc3)nc2c1
7 | 100% | Cc1ccnc(NS(=O)(=O)c2ccc3nc(-c4ccccc4)c(-c4ccccc4)nc3c2)c1
8 | 87.6% | O=[N+]([O-])c1ccc(NS(=O)(=O)c2ccc3nc(-c4ccccc4)c(-c4ccccc4)nc3c2)cc1
